Laboratory results: patent US20240368174A1, “Antiviral Heterocyclic Compounds” (Enanta Pharmaceuticals, Inc., priority 2023, published 2024)

System: HMPV clinical isolate A2 strain TN 94-49
Test: HMPV antiviral assay, Method 2 (LLC-MK2 cells with CP-100-356, ATP-Lite)
Type: cell-based
Settings: human metapneumovirus; hMPV A2 TN/94-49, LLC-MK2 cells with CP-100-356, Method 2
Experimental: In vitro HMPV antiviral activity was evaluated using the clinical isolate A2 strain TN 94-49 (obtained from Dr. John Williams, Vanderbilt University, Tennessee) and LLC-MK2 cells (Millipore Sigma CB_85062804), an immortalized kidney epithelial cell line from Macaca mulatta. Compounds were resuspended in dimethyl sulfoxide (DMSO) at 10 mM, serially diluted and added to a 384-well source plate. Subsequently, the compounds were diluted and transferred onto 384-well assay plates using the Echo-650 automated liquid handling system (Beckman Coulter, Indiana). The test compounds were assessed in duplicate at a top concentration of 200 nM followed by 2.5-fold serial dilutions to give a total of 10 concentration points. DMSO control wells were also included on the assay plates and were either infected or not, acting as positive and negative controls. A2 TN 94-49 virus infections were performed in-suspension with LLC-MK2 cells. The cells were washed twice with PBS and removed from the cell-culture flask with 0.25% trypsin-EDTA (Thermo Fisher Scientific, MA). The trypsin-EDTA was inactivated by resuspending in 2% fetal bovine serum (FBS) and OptiMEM (ThermoFisher Scientific, MA) containing 1% antibiotic-antimycotic. Cells were pelleted by centrifuging for 5 minutes at 800 rpm, the supernatant was removed, and cells were re-suspended and washed in PBS plus 100 μg/mL CaCl2). This step was performed twice. Cells were then re-suspended in serum-free (SF)-OptiMEM containing 4 μg/mL TPCK-Trypsin (Sigma Aldrich, MO), 1% antibiotic-antimycotic (ThermoFisher Scientific, MA), 100 μg/mL CaCl2), and 4 μM of CP-100-356, a P-glycoprotein inhibitor. Cells were counted and seeded at a density of 5,000 cells/well, 12.5 μL/well. Virus infections were done at a multiplicity of infection (MOI) of 0.16 with 12.5 μL added per well. Virus infections were performed in infection media which contained SF-OptiMEM, 100 μg/mL CaCl2) and 1% antibiotic-antimycotic. HMPV viral stocks are suspended in infection media+5% glycerol, thus an equal volume of infection media+5% glycerol was added to uninfected wells to equalize the final % glycerol across all wells of the assay plate. The final concentration of TPCK-trypsin was 2 μg/mL. The final concentration of CP-100-356 was 2 μM. The assay plates were incubated at 37° C., 5% CO2 for 7 days. After 7 days incubation, 12.5 μL of ATP-Lite (PerkinElmer, MA) was added to each well and the raw luminescence values were determined using the Envision 2104 (Perkin Elmer, MA). The average of the raw luminescence values for the cells and virus only positive control wells was subtracted from all conditions tested and the percent cell health was determined by dividing these values by the average of the cells only negative control wells. EC50 values were then calculated by non-linear regression using a four-parameter curve logistic equation. The curve fit model employed was XLFit Dose Response One Site Model 200: y=(A+(B/(1+((x/C)^D)))), where A is the minimum y value, B is the maximum y value, C is the log EC50 value, and D is the slope factor.

Row | Structure (SMILES) | EC50 [nM]
1 | COc1cc(OC)c2cc(C(=O)NC[C@@](O)(c3ccccc3)c3cc4c(c(-c5cc(Cl)c(F)cc5F)n3)OC[C@]4(C)C(N)=O)[nH]c2c1 [Example 94] | > 200
2 | COc1cc(C(=O)NC[C@@](O)(c2ccccc2)c2cc3c(c(-c4cccc(Cl)c4Cl)n2)OC[C@]3(C)C(N)=O)cc2oc(C)nc12 [Example 95] | < 200
3 | COc1cc(C(=O)NC[C@@](O)(c2ccccc2)c2cc3c(c(-c4cccc(Cl)c4Cl)n2)OC[C@]3(C)C(N)=O)cc2oc(C3CC3)nc12 [Example 96] | < 200
4 | C[C@]1(C(N)=O)COc2c1cc([C@@](O)(CNC(=O)c1ccc3nc(C4CC4)oc3c1)c1ccccc1)nc2-c1cccc(Cl)c1Cl [Example 97] | < 200
5 | COc1cc(C(=O)NC[C@](O)(c2cc3c(c(-c4cc(F)c(F)cc4F)n2)OC[C@]3(C)C(N)=O)C2CC2)cc2cc(Cl)cnc12 [Example 103] | < 200
6 | C[C@]1(C(N)=O)COc2c1cc([C@@](O)(CNC(=O)c1cc(OC3CC3)c3ncc(Cl)cc3c1)C1CC1)nc2-c1cc(F)c(F)cc1F [Example 104] | < 200
7 | [2H]C([2H])([2H])NC(=O)[C@@]1(C)COc2c1cc([C@@](O)(CNC(=O)c1cc(OC)c3nn(C4(F)CC4)cc3c1)c1ccccc1)nc2-c1cc(Cl)c(F)cc1F [Example 109] | < 200
8 | C[C@]1(C(N)=O)COc2c1cc([C@@](O)(CNC(=O)c1cc(OC3CC3)c3nn(C4(F)CC4)cc3c1)C1CC1)nc2-c1ccc(F)c(Cl)c1 [Example 112] | < 200
9 | Cc1cc(C(=O)NC[C@](O)(c2cc3c(c(-c4cc(F)c(F)cc4F)n2)OC[C@]3(C)C(N)=O)C2CC2)cc2cn[nH]c12 [Example 120] | > 200
10 | COc1cc(C(=O)NC[C@](O)(c2cc3c(c(-c4ccnc(F)c4)n2)OC[C@]3(C)C(N)=O)C2CC2)cc2cn(C3CC3)nc12 [Example 121] | > 200
11 | C[C@]1(C(N)=O)COc2c1cc([C@@](O)(CNC(=O)c1cc(OCCO)c3nn(C4CC4)cc3c1)C1CC1)nc2-c1cc(Cl)c(F)cc1F [Example 126] | < 200
12 | Cc1nc2c(OC(F)F)cc(C(=O)NC[C@](O)(c3cc4c(c(-c5cc(Cl)c(F)cc5F)n3)OC[C@]4(C)C(N)=O)c3ccccc3F)cc2cc1Br [Example 139] | > 200
13 | COc1cc(C(=O)NC[C@@](O)(c2ccncc2)c2cc3c(c(-c4cc(Cl)c(F)cc4F)n2)OC[C@]3(C)C(N)=O)cc2cn(C3CC3)nc12 [Example 152] | < 200
14 | COc1cc(C(=O)NC[C@@](O)(c2cnn(C)c2)c2cc3c(c(-c4cc(Cl)c(F)cc4F)n2)OC[C@]3(C)C(N)=O)cc2cn(C3CC3)nc12 [Example 153] | > 200
15 | COc1cc(C(=O)NC[C@@](O)(c2cccc(F)n2)c2cc3c(c(-c4cc(Cl)c(F)cc4F)n2)OC[C@]3(C)C(N)=O)cn2cc(C3CC3)nc12 [Example 154] | < 200
16 | Cc1nc2ccc(C(=O)NC[C@@](O)(c3ccccc3)c3cc4c(c(-c5cc(F)c(F)cc5F)n3)OC[C@]4(C)C(N)=O)cc2o1 [Example 192] | < 200
17 | COc1cc(C(=O)NC[C@@](O)(c2ccccc2)c2cc3c(c(-c4cc(F)c(F)cc4F)n2)OC[C@]3(C)C(N)=O)cc2oc(C)nc12 [Example 193] | < 200
18 | C[C@]1(C(N)=O)COc2c1cc([C@@](O)(CNC(=O)c1ccc3nc(C4CC4)oc3c1)c1ccccc1)nc2-c1cc(F)c(F)cc1F [Example 194] | < 200
19 | C[C@]1(C(N)=O)COc2c1cc([C@@](O)(CNC(=O)c1ccc3nc(C4CC4)oc3c1)c1ccccc1)nc2-c1ccc2c(c1)OC(F)(F)O2 [Example 199] | > 200
20 | COc1cc(C(=O)NC[C@@](O)(c2ccccc2)c2cc3c(c(-c4ccc5c(c4)OC(F)(F)O5)n2)OC[C@]3(C)C(N)=O)cc2oc(C3CC3)nc12 [Example 200] | < 200
21 | COc1cc(C(=O)NC[C@@](O)(c2ccccc2)c2cc3c(c(-c4ccc5c(c4)OC(F)(F)O5)n2)OC[C@]3(C)C(N)=O)cc2oc(C)nc12 [Example 201] | < 200
22 | COc1cc(C(=O)NC[C@@](O)(c2ccccc2)c2cc3c(c(-c4ccc5c(c4)OC(F)(F)O5)n2)OC[C@]3(C)C(N)=O)cc2cc(Cl)cnc12 [Example 202] | < 200
23 | COc1cc(C(=O)NC[C@@](O)(c2cccc(F)n2)c2cc3c(c(-c4cc(Cl)c(F)cc4F)n2)OC[C@]3(C)C(N)=O)cc2cn(C3CC3)nc12 [Example 203] | < 200
24 | COc1cc(C(=O)NC[C@@](O)(c2cccc(F)n2)c2cc3c(c(-c4cc(Cl)c(F)cc4F)n2)OC[C@]3(C)C(N)=O)cc2cn(C3(F)CC3)nc12 [Example 204] | < 200
25 | COc1cc(C(=O)NC[C@@](O)(c2cccc(F)n2)c2cc3c(c(-c4cc(Cl)c(F)cc4F)n2)OC[C@]3(C)C(N)=O)cc2cn(C(F)F)nc12 [Example 205] | < 200

The next lines start with the values.

Row | EC50 [nM] | Structure (SMILES)
26 | > 200 | COc1cc(C(=O)NC[C@@](O)(c2ccccc2)c2cc3c(c(-c4cc(Cl)c(F)cc4F)n2)OC[C@]3(C)C(N)=O)cc2c1OCCC2 [Example 93]
27 | < 200 | C[C@]1(C(N)=O)COc2c1cc([C@@](O)(CNC(=O)c1cc(OC3CC3)c3nn(C4CC4)cc3c1)c1ccccc1)nc2-c1cc(Cl)c(F)cc1F [Example 98]
28 | < 200 | C[C@]1(C(N)=O)COc2c1cc([C@@](O)(CNC(=O)c1cc(Cl)c3nn(C4CC4)cc3c1)c1ccccc1)nc2-c1cc(Cl)c(F)cc1F [Example 99]
29 | < 200 | C[C@]1(C(N)=O)COc2c1cc([C@@](O)(CNC(=O)c1cc(F)c3nn(C4CC4)cc3c1)c1ccccc1)nc2-c1cc(Cl)c(F)cc1F [Example 100]
30 | < 200 | C[C@]1(C(N)=O)COc2c1cc([C@@](O)(CNC(=O)c1ccc3nn(C4CC4)cc3c1)c1ccccc1)nc2-c1cc(Cl)c(F)cc1F [Example 101]
31 | < 200 | [2H]C([2H])([2H])NC(=O)[C@@]1(C)COc2c1cc([C@@](O)(CNC(=O)c1cc(OC)c3nc(C4CC4)oc3c1)c1ccccc1)nc2-c1cc(Cl)c(F)cc1F [Example 110]
32 | < 200 | COc1cc(C(=O)NC[C@@](O)(c2ccccc2)c2cc3c(c(-c4cc(Cl)c(F)cc4F)n2)OC[C@]3(C)C(N)=O)cc2cc(Cl)nnc12 [Example 113]
33 | < 200 | COc1cc(C(=O)NC[C@@](O)(c2ccccc2)c2cc3c(c(-c4cc(Cl)c(F)cc4F)n2)OC[C@]3(C)C(N)=O)cn2cc(C3CC3)nc12 [Example 115]
34 | > 200 | C[C@]1(C(N)=O)COc2c1cc([C@@](O)(CNC(=O)c1cc(Cl)c3[nH]ncc3c1)c1ccccc1)nc2-c1cc(Cl)c(F)cc1F [Example 117]
35 | < 200 | Cc1cc(C(=O)NC[C@@](O)(c2ccccc2)c2cc3c(c(-c4cc(Cl)c(F)cc4F)n2)OC[C@]3(C)C(N)=O)cc2cn[nH]c12 [Example 118]
36 | > 200 | Cc1nc2c(OC(F)(F)F)cc(C(=O)NC[C@@](O)(c3ccccc3)c3cc4c(c(-c5cc(Cl)c(F)cc5F)n3)OC[C@]4(C)C(N)=O)cc2s1 [Example 188]
37 | < 200 | Cc1nc2c(OC3CC3)cc(C(=O)NC[C@@](O)(c3ccccc3)c3cc4c(c(-c5cc(Cl)c(F)cc5F)n3)OC[C@]4(C)C(N)=O)cc2s1 [Example 189]
38 | > 200 | C[C@]1(C(N)=O)COc2c1cc([C@@](O)(CNC(=O)c1cc(OC3CC3)c3nc(C4CC4)sc3c1)c1ccccc1)nc2-c1cc(Cl)c(F)cc1F [Example 190]
39 | < 200 | C[C@]1(C(N)=O)COc2c1cc([C@@](O)(CNC(=O)c1cc(OC3CC3)n3nc(C4CC4)cc3c1)c1ccccc1)nc2-c1cc(Cl)c(F)cc1F [Example 191]
40 | < 200 | COc1cc(C(=O)NC[C@@](O)(c2ccccc2)c2cc3c(c(-c4cc(F)c(F)cc4F)n2)OC[C@]3(C)C(N)=O)cc2oc(C3CC3)nc12 [Example 195]
41 | < 200 | C[C@]1(C(N)=O)COc2c1cc([C@@](O)(CNC(=O)c1cc(OC3CC3)c3ncc(Cl)cc3c1)c1ccccc1)nc2-c1cc(Cl)c(F)cc1F [Example 196]
42 | < 200 | C[C@]1(C(N)=O)COc2c1cc([C@@](O)(CNC(=O)c1cc(OC3CC3)c3ncc(Cl)cc3c1)c1ccccc1)nc2-c1cc(F)c(F)cc1F [Example 197]
43 | < 200 | COc1cc(C(=O)NC[C@@](O)(c2ccccc2)c2cc3c(c(-c4cc(F)c(F)cc4F)n2)OC[C@]3(C)C(N)=O)cc2cc(Cl)cnc12 [Example 198]
